In the assay the target is PD-1/PD-L1 protein/protein interaction (Homo sapiens (Human), UniProt Q9NZQ7). In words: PD-1/PD-L1 Homogeneous Time-Resolved Fluorescence (HTRF) Binding Assay. The note with it: recombinant human PD-L1 (19-238) His-tag 10 nM, human PD-1 (25-167) Fc tag 3 nM, 25° C., PBS pH 7.4. The method, then:
The assays were conducted in a standard black 384-well polystyrene plate with a final volume of 20 μL. Inhibitors were first serially diluted in DMSO and then added to the plate wells before the addition of other reaction components. The final concentration of DMSO in the assay was 1%. The assays were carried out at 25° C. in the PBS buffer (pH 7.4) with 0.05% Tween-20 and 0.1% BSA. Recombinant human PD-L1 protein (19-238) with a His-tag at the C-terminus was purchased from AcroBiosystems (PD1-H5229). Recombinant human PD-1 protein (25-167) with Fc tag at the C-terminus was also purchased from AcroBiosystems (PD1-H5257). PD-L1 and PD-1 proteins were diluted in the assay buffer and 10 μL was added to the plate well. Plates were centrifuged and proteins were preincubated with inhibitors for 40 minutes. The incubation was followed by the addition of 10 μL of HTRF detection buffer supplemented with Europium cryptate-labeled anti-human IgG (PerkinElmer-AD0212) specific for Fc and anti-His antibody conjugated to SureLight®-Allophycocyanin (APC, PerkinElmer-AD0059H). After centrifugation, the plate was incubated at 25° C. for 60 min. before reading on a PHERAstar FS plate reader (665 nm/620 nm ratio). Final concentrations in the assay were—3 nM PD1, 10 nM PD-L1, 1 nM europium anti-human IgG and 20 nM anti-His-Allophycocyanin. IC50 determination was performed by fitting the curve of percent control activity versus the log of the inhibitor concentration using the GraphPad Prism 5.0 software.
Sequence of PD-1/PD-L1 protein/protein interaction (Q9NZQ7 19-238): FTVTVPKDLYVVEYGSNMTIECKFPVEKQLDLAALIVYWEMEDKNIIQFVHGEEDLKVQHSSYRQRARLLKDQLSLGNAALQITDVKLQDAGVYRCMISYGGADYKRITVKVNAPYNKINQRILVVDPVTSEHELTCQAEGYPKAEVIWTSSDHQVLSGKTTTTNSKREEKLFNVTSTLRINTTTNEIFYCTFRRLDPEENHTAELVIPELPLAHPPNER
What is called IC50 is the point on the concentration scale where inhibition reaches its midpoint. With `COc1cccc(-c2cccc(NC(=O)c3ncc(CNCCO)n3C)c2C#N)c1F` [Example 15, N-(2-cyano-2′-fluoro-3′-methoxybiphenyl-3-yl)-5-{[(2-hydroxyethyl)amino]methyl}-1-methyl-1H-imidazole-2-carboxamide], the IC50 was ≤ 100 nM. With `Cn1nc(C(=O)Nc2cccc(-c3ccc4c(c3)OCCO4)c2C#N)cc1CNCCO` [Example 10, N-[2-cyano-3-(2,3-dihydro-1,4-benzodioxin-6-yl)phenyl]-5-{[1(2-hydroxyethyl)amino]methyl}-1-methyl-1H-pyrazole-3-carboxamide], the IC50 was ≤ 100 nM.

Take `Cc1c(COc2cc(OCc3cncc(C#N)c3)c(CN3CCCC[C@H]3C(=O)O)cc2Cl)cccc1-c1cccc(NC(=O)c2ncc(CN3CC[C@@H](O)C3)s2)c1C` [Example 18, (S)-1-(5-chloro-2-((5-cyanopyridin-3-yl)methoxy)-4-((3′-(5-(((R)-3-hydroxypyrrolidin-1-yl)methyl)thiazole-2-carboxamido)-2,2′-dimethyl-[1,1′-biphenyl]-3-yl)methoxy)benzyl)piperidine-2-carboxylic acid]: the IC50 is ≤ 100 nM. On to `Cn1c(CNCCO)cnc1C(=O)Nc1cccc(-c2cccc3c2cnn3C)c1C#N` [Example 16, N-[2-cyano-3-(1-methyl-1H-indazol-4-yl)phenyl]-5-{[(2-hydroxyethyl)amino]methyl}-1-methyl-1H-imidazole-2-carboxamide], for which the IC50 fell in the range of 100 to 500 nM. As for `Cc1nc(C(=O)Nc2cccc(-c3ccccc3)c2C)sc1CNCCO` [Example 9, 5-{[(2-hydroxyethyl)amino]methyl}-4-methyl-N-(2-methylbiphenyl-3-yl)-1,3-thiazole-2-carboxamide], the IC50 is ≤ 100 nM. For the compound `Cc1c(NC(=O)c2ncc(CN3CCCC[C@H]3C(=O)O)s2)cccc1-c1ccccc1` [Example 1, (2S)-1-[(2-{[(2-methylbiphenyl-3-yl)amino]carbonyl}-1,3-thiazol-5-yl)methyl]piperidine-2-carboxylic acid], the half-maximal inhibitory concentration (IC50) is ≤ 100 nM. Under `Cc1c(NC(=O)c2cc(CN3CCCC[C@H]3C(=O)O)n(C)n2)cccc1-c1ccccc1` [Example 6, (2S)-1-[(1-methyl-3-{[(2-methylbiphenyl-3-yl)amino]carbonyl}-1H-pyrazol-5-yl)methyl]piperidine-2-carboxylic acid] stands ≤ 100 nM. For `Cc1c(NC(=O)c2nc(Cl)c(CNCCO)s2)cccc1-c1ccccc1` [Example 8, 4-chloro-5-{[(2-hydroxyethyl)amino]methyl}-N-(2-methylbiphenyl-3-yl)-1,3-thiazole-2-carboxamide], the IC50 is ≤ 100 nM. In the case of `Cc1c(NC(=O)c2cc(CNCCO)n(C)n2)cccc1-c1ccccc1` [Example 7, 5-{[(2-hydroxyethyl)amino]methyl}-1-methyl-N-(2-methylbiphenyl-3-yl)-1H-pyrazole-3-carboxamide], the IC50 was ≤ 100 nM. On to `Cn1nc(C(=O)Nc2cccc(-c3cccc4c3cnn4C)c2C#N)cc1CNCCO` [Example 13, N-[2-cyano-3-(1-methyl-1H-indazol-4-yl)phenyl]-5-{[(2-hydroxyethyl)amino]methyl}-1-methyl-1H-pyrazole-3-carboxamide], for which the IC50 is ≤ 100 nM. For `Cc1c(NC(=O)c2ncc(CNCCO)n2C)cccc1-c1ccccc1` [Example 5, 5-{[(2-hydroxyethyl)amino]methyl}-1-methyl-N-(2-methylbiphenyl-3-yl)-1H-imidazole-2-carboxamide] the value was ≤ 100 nM; for `Cc1c(COc2cc(OCc3cncc(C#N)c3)c(CN3CCCC[C@H]3C(=O)O)cc2Cl)cccc1-c1cccc(NC(=O)c2ncc(CNCCO)s2)c1C` [Example 17, (S)-1-(5-chloro-2-((5-cyanopyridin-3-yl)methoxy)-4-((3′-(5-(((2-hydroxyethyl)amino)methyl)thiazole-2-carboxamido)-2,2′-dimethyl-[1,1′-biphenyl]-3-yl)methoxy)benzyl)piperidine-2-carboxylic acid], ≤ 100 nM. Take `Cc1c(NC(=O)c2cc(CN3CC[C@@H](O)C3)n(C)n2)cccc1-c1cccc(NC(=O)c2ncc(CN3CC[C@@H](O)C3)s2)c1C` [Example 19, 5-(((R)-3-hydroxypyrrolidin-1-yl)methyl)-N-(3′-(5-(((R)-3-hydroxypyrrolidin-1-yl)methyl)-1-methyl-1H-pyrazole-3-carboxamido)-2,2′-dimethyl-[1,1′-biphenyl]-3-yl)thiazole-2-carboxamide]: the IC50 is ≤ 100 nM.

Turning to `Cc1c(NC(=O)c2ncc(CN3CCCC[C@H]3C(=O)O)n2C)cccc1-c1ccccc1` [Example 4, (2S)-1-[(1-methyl-2-{[(2-methylbiphenyl-3-yl)amino]carbonyl}-1H-imidazol-5-yl)methyl]piperidine-2-carboxylic acid], the IC50 is 100 to 500 nM. For `Cn1nc(C(=O)Nc2cccc(-c3ccccc3F)c2C#N)cc1CNCCO` [Example 11, N-(2-cyano-2′-fluorobiphenyl-3-yl)-5-{[(2-hydroxyethyl)amino]methyl}-1-methyl-1H-pyrazole-3-carboxamide] the value was ≤ 100 nM; for `Cc1c(NC(=O)c2ncc(CNCCO)o2)cccc1-c1ccccc1` [Example 3, 5-{[(2-hydroxyethyl)amino]methyl}-N-(2-methylbiphenyl-3-yl)-1,3-oxazole-2-carboxamide], 100 to 500 nM; for `Cn1c(CNCCO)cnc1C(=O)Nc1cccc(-c2ccc3c(c2)OCCO3)c1C#N` [Example 14, N-[2-cyano-3-(2,3-dihydro-1,4-benzodioxin-6-yl)phenyl]-5-{[1(2-hydroxyethyl)amino]methyl}-1-methyl-1H-imidazole-2-carboxamide], ≤ 100 nM.

For the compound `COc1cccc(-c2cccc(NC(=O)c3cc(CNCCO)n(C)n3)c2C#N)c1F` [Example 12, N-(2-cyano-2′-fluoro-3′-methoxybiphenyl-3-yl)-5-{[(2-hydroxyethyl)amino]methyl}-1-methyl-1H-pyrazole-3-carboxamide], the IC50 was ≤ 100 nM. In the case of `Cc1c(NC(=O)c2ncc(CNCCO)s2)cccc1-c1ccccc1` [Example 2, 5-{[(2-hydroxyethyl)amino]methyl}-N-(2-methylbiphenyl-3-yl)-1,3-thiazole-2-carboxamide], the half-inhibitory concentration (IC50) is ≤ 100 nM.

The values above are taken from patent US11613536B2, “Heterocyclic compounds as immunomodulators” (Incyte Corporation, priority 2016, dated 2023).
